From the supplement of paper PMC10307832

Tests used:
Experiment in all cases: relative viability (nuclei count vs DMSO), 5 days (fraction); higher = more cells survive
Carboplatin + Crizotinib = compound: C1CC(C1)(C(=O)O)C(=O)O.[NH2-].[NH2-].[Pt+2] [Carboplatin] + C[C@@H](Oc1cc(-c2cnn(C3CCNCC3)c2)cnc1N)c1c(Cl)ccc(F)c1Cl [Crizotinib] (partner 1 µM)
Outline: (§1)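 Lung cancer cell lines were seeded in 1536-well plates and dosed by pin tool the next day, with either a single drug or a fixed anchor-drug dose combined with five library-drug doses (not always all listed) spaced in √10 steps. Five days later, one step fixed the cells and stained their nuclei (final 0.05% Triton X-100, 1% formaldehyde, 1 ug/ml Hoechst), and nuclei were counted on 4× images. Relative viability is the nuclei count in treated wells divided by the count in vehicle wells, and each value is the median of duplicate plates.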

MLN4924 + Palbociclib = compound: NS(=O)(=O)OC[C@@H]1C[C@@H](n2ccc3c(N[C@H]4CCc5ccccc54)ncnc32)C[C@@H]1O [MLN4924] + CC(=O)c1c(C)c2cnc(Nc3ccc(N4CCNCC4)cn3)nc2n(C2CCCC2)c1=O [Palbociclib] (partner 0.5 µM)
Outline: as §1

MLN4924 + OSI-027 = compound: NS(=O)(=O)OC[C@@H]1C[C@@H](n2ccc3c(N[C@H]4CCc5ccccc54)ncnc32)C[C@@H]1O [MLN4924] + COc1cccc2cc(-c3nc([C@H]4CC[C@H](C(=O)O)CC4)n4ncnc(N)c34)[nH]c12 [OSI-027] (partner 0.5 µM)
Outline: as §1

MLN4924 + Pemetrexed = compound: NS(=O)(=O)OC[C@@H]1C[C@@H](n2ccc3c(N[C@H]4CCc5ccccc54)ncnc32)C[C@@H]1O [MLN4924] + Nc1nc2[nH]cc(CCc3ccc(C(=O)N[C@@H](CCC(=O)O)C(=O)O)cc3)c2c(=O)[nH]1 [Pemetrexed] (partner 0.2 µM)
Outline: as §1

## UMC-11
Carboplatin + Crizotinib; first compound 0.08 µM
  relative viability: 0.721
Carboplatin + Crizotinib; first compound 0.253 µM
  relative viability: 0.652
Carboplatin + Crizotinib; first compound 0.8 µM
  relative viability: 0.515
Carboplatin + Crizotinib; first compound 2.53 µM
  relative viability: 0.484
Carboplatin + Crizotinib; first compound 8 µM
  relative viability: 0.301
MLN4924 + Palbociclib; first compound 0.04 µM
  relative viability: 0.335
MLN4924 + Palbociclib; first compound 0.1265 µM
  relative viability: 0.336
MLN4924 + Palbociclib; first compound 0.4 µM
  relative viability: 0.321
MLN4924 + Palbociclib; first compound 1.265 µM
  relative viability: 0.245
MLN4924 + Palbociclib; first compound 4 µM
  relative viability: 0.249
MLN4924 + OSI-027; first compound 0.04 µM
  relative viability: 0.429
MLN4924 + OSI-027; first compound 0.1265 µM
  relative viability: 0.315
MLN4924 + OSI-027; first compound 0.4 µM
  relative viability: 0.271
MLN4924 + OSI-027; first compound 1.265 µM
  relative viability: 0.168
MLN4924 + OSI-027; first compound 4 µM
  relative viability: 0.179
MLN4924 + Pemetrexed; first compound 0.04 µM
  relative viability: 0.53
MLN4924 + Pemetrexed; first compound 0.1265 µM
  relative viability: 0.327
MLN4924 + Pemetrexed; first compound 0.4 µM
  relative viability: 0.289
MLN4924 + Pemetrexed; first compound 1.265 µM
  relative viability: 0.175
MLN4924 + Pemetrexed; first compound 4 µM
  relative viability: 0.159
